Laboratory results from patent US11617733B2, “Bicyclic compound and use thereof for medical purposes” (ONO PHARMACEUTICAL CO., LTD., priority 2009, dated 2023).

What was measured:
male dog (TOYO Beagle) = assay: Intraocular pressure lowering action in dog after ocular instillation; format: in vivo
Procedure: (2-1) Intraocular Pressure Lowering Action
To one eye of a male dog (TOYO Beagle) which had been sufficiently acclimated in advance was ocular-instilled 30 μL of each test compound (compound of Example 16 (35), compound of Example 16 (3) and compound of Example 16(25)) which had been adjusted with a base (containing citrate buffer pH 6.5, 0.5% polysorbate 80, 1% propylene glycol, 0.01% benzalkonium chloride) to 0.01% (w/v) or 0.001% (w/v), respectively. The other eye was not treated. As a positive control compound, latanoprost which is the known compound was used.
Thereafter, an ocular surface anesthetic (Benoxil eye drops 0.4%, Santen Pharmaceutical Co., Ltd.) was subjected to ocular instillation to locally anesthetize eyes, and an intraocular pressure of each test compound before ocular instillation and after 2, 4, 6, 8, and 24 hours from ocular instillation was measured. An intraocular pressure was measured using a pneumatic applanation flat tonometer (Model 30 Classic, REICHERT). An intraocular pressure lowering rate (%) was calculated by the following equation. Intraocular pressure lowering rate (%)=(intraocular pressure value before ocular instillation−intraocular pressure value at each point)/(intraocular pressure value before ocular instillation)×100 [Mathematic 1]

[1] = test system: male rabbit (NewZealandWhite); assay: Aqueous humor protein concentration in rabbit after ocular instillation; format: in vivo; conditions: ocular instillation 30 μL, 0.1% (w/v), 0-8 hours
Procedure: (2-2) Assessment of Ocular Stimulating Property and Aqueous Humor Protein Concentration
To one eye of a male rabbit (NewZealandWhite, 2.0 to 3.0 kg) was ocular-instilled 30 μL of the compound of Example 16 (35), the compound of Example 16 (3) and the compound of Example 16 (25) which had been adjusted to 0.1% (w/v) with a base (containing citrate buffer pH 6.5, 0.5% polysorbate 80, 1% propylene glycol, 0.01% benzalkonium chloride), respectively. Thereafter, an aqueous humor in anterior chamber after 0, 1, 2, 4, 6 and 8 hours from ocular instillation was collected, and a protein concentration in the humor was measured. As a comparative compound, the aforementioned methyl ester of the compound of Example 12 described in Patent Literature 2 (i.e. compound of Example 10 described in Patent Literature 2) (hereinafter, abbreviated as Comparative Compound B in some cases) was used.
Regarding any test compound, a dose until a dissolution limit (150 to 1000 μg/mL) was administered and action of each active body was assessed.

| Compound | Intraocular pressure lowering action compared with positive control latanoprost (in words) (male dog (TOYO Beagle)) | Action on protein concentration in aqueous humor (in words) [1] |
| --- | --- | --- |
| CCOC(=O)CCC[C@H]1CC[C@@H]2[C@@H](/C=C/[C@@H](O)COc3ccccc3)[C@H](O)C[C@@H]2OC1 [Example 16 (35), Ethyl 4-{(3S, 5aR, 6R, 7R, 8aS)-7-hydroxy-6-[(1E, 3R)-3-hydroxy-4-phenoxy-1-buten-1-yl]octahydro-2H-cyclopenta[b]oxepin-3-yl}butanoate] | stronger intraocular pressure lowering action as compared with latanoprost | no action of raising a protein concentration in an aqueous humor |
| CC(C)OC(=O)CCC[C@H]1CC[C@@H]2[C@@H](/C=C/[C@@H](O)COc3cccc(Cl)c3)[C@H](O)C[C@@H]2OC1 [Example 16 (3), 2-Propanyl 4-{(3S, 5aR, 6R, 7R, 8aS)-6-[(1E, 3R)-4-(3-chlorophenoxy)-3-hydroxy-1-buten-1-yl]-7-hydroxyoctahydro-2H-cyclopenta[b]oxepin-3-yl}butanoate] | stronger intraocular pressure lowering action as compared with latanoprost | no action of raising a protein concentration in an aqueous humor |
